Data set [1] concerns E. coli O157:H7 51659. In words: Antibacterial screening at 100 μg/ml. The settings on record: for bactericidal activity: 100 μg/ml, MDR E. coli. It counts as cell-based, Escherichia coli. As for the experimental part:
(§1) Staphylococcus aureus ATCC 33592 (MDR) and BAA-1718, E. coli ATCC 51659 (MDR) and 4,157 were purchased from the American Type Culture Collection (Manassas, VA, United States). All strains are reference strains. Bacteria were grown in Tryptic Soy Broth (BD 211825), except E. coli 4157 which was grown in Nutrient Broth (Difco 234000), overnight in a shaking incubator (37 C). Bacteria were aliquoted, mixed with glycerol (final concentration of 20% of glycerol) and frozen at −80 C and enumerated via serial dilution and plating prior to experimentation.
(§2) The antibacterial screening test of the peptides (n=3) was first determined at a final peptide concentration of 100 μg/ml and a final bacterial concentration of 5×10^5 CFU/mL in Difco Mueller Hinton Broth (BD 275730) in a 96 well plate. The plate was incubated for 16-20 h at 37 C and then read on a spectrophotometer at OD600 nm. […] Wells containing medium only were used as sterility control, in the wells around the edge of the plates. LL-37 was used as a control in the first run of experiments against the MDR bacterial strains (Turner et al., 1998). […] The sequence of BF-CATH was derived from DBAASP database listed as cathelicidin-BF-34 with the following sequence: […]

The test system of data set [2] is S. aureus MRSA 33592. Briefly: Antibacterial screening at 100 μg/ml. It counts as cell-based, Staphylococcus aureus. Conditions: MDR S. aureus. As to the method:
as §1, §2

For data set [3], the system named is E. coli 4157. It counts as cell-based, Escherichia coli. As to the method: as §1
(§3) The full range MIC activity testing of the peptides was then determined as previously reported using the Mueller Hinton Broth (BD 275730) in a 96 well plate following the CLSI protocol (Wiegand et al., 2008). Enumerated bacteria were diluted in MHB and 50 ul of 1×10^6 CFU/mL (5×10^4 CFU) was added to each well with 50 ul of a decreasing series of twofold peptide concentration. The plate was incubated for 16-20 h at 37 C and then read on a spectrophotometer at OD600 nm.

For data set [4], the system named is MDR E. coli 51659. It is filed as cell-based, Escherichia coli. The settings on record: MDR E. coli O157:H7 51659, Mueller Hinton Broth (high salt). As for the experimental part:
as §1, §3

Data set [5] concerns S. aureus 33592. It counts as cell-based, Staphylococcus aureus. Conditions: MDR S. aureus (MRSA) 33592, Mueller Hinton Broth. As to the method: as §1, §3
Data set [6] concerns S. aureus BAA-1718. It is filed as cell-based, Staphylococcus aureus. Conditions: antibiotic susceptible S. aureus BAA-1718, Mueller Hinton Broth. As for the experimental part:
as §1, §3

Data set [7] deals with E. coli ATCC 25922. Conditions: E. coli ATCC 25922 (Wang et al., 2008); cited from earlier work.
In data set [8] the test system is S. aureus MRSA 33592. It is filed as cell-based, Staphylococcus aureus. The settings on record: low salt, 10 mM sodium phosphate, 3 h. As to the method:
as §1
The antimicrobial activity of the PHNX peptides and LL-37 (AnaSpec 61302) against bacteria was determined as previously described (Barksdale et al., 2016, 2017). Briefly, 1×10^5 CFU per well of bacteria were incubated with different peptide concentrations (n=3) in a 50-ul solution of 10 mM sodium phosphate buffer (3 h, 37 C). Serial dilutions were then prepared in 1× Dulbecco's PBS and 8 ul of each dilution was spotted in triplicate on Tryptic Soy Agar plates, which were incubated (37 C, 24 h) and CFUs were counted (Barksdale et al., 2016, 2017). Bacterial survival at each peptide concentration was calculated based on the ratio of the number of colonies on each experimental plate and the average number of colonies observed for assay cultures lacking peptide. The peptide concentration required to kill 50% of the viable bacteria in the assay cultures (EC5O) was determined by plotting percent survival as a function of the log of peptide concentration (log μg/ml) and fitting the data using GraphPad Prism 6 (GraphPad Software Inc., San Diego, CA, United States). For the purpose of graphing, samples that had no peptide (0 μg/ml) are plotted at 1×10^−7 μg/ml peptide. EC50 values were determined by fitting the data from the antimicrobial assays to a standard sigmoidal dose-response curve. […] Wells containing only 10 mM sodium phosphate buffer were used as sterility control.

The subject of data set [9] is E. coli O157:H7 51659. In words: EC50 antimicrobial activity assay (low salt, 10 mM sodium phosphate). It counts as cell-based, Escherichia coli. Conditions: MDR E. coli, 3 h. As for the experimental part: as §1
The antimicrobial activity of the PHNX peptides and LL-37 (AnaSpec 61302) against bacteria was determined as previously described (Barksdale et al., 2016, 2017). […] Serial dilutions were then prepared in 1× Dulbecco's PBS and 8 ul of each dilution was spotted in triplicate on Tryptic Soy Agar plates, which were incubated (37 C, 24 h) and CFUs were counted (Barksdale et al., 2016, 2017). Bacterial survival at each peptide concentration was calculated based on the ratio of the number of colonies on each experimental plate and the average number of colonies observed for assay cultures lacking peptide. […] EC50 values were determined by fitting the data from the antimicrobial assays to a standard sigmoidal dose-response curve. […]

In data set [10] the test system is human red blood cells. As to the method:
To measure the hemolytic activity of peptides, 2% human red blood cells were added to various dilutions of peptide reconstituted in PBS in a sterile U-bottom polystyrene 96 well plate (Dean et al., 2011). The commercially obtained, deidentified human RBCs (BIOIVT Westbury, NY) were prepared as follows: 1 mL of K2EDTA whole blood from a healthy donor was centrifuged at 1,600 g for 10 min and plasma was discarded. The remaining RBCs were washed 4 times with 1 ml 1×PBS (HyClone), then the pallet after the last wash was resuspended with 750 ul of 1×PBS. 2% RBCs suspension was prepared by adding 200 ul of washed cells to 9.8 mL of 1×PBS. […] of 2% RBCs were added to each well (n=3) containing diluted peptides resulting in final peptide concentration of 100, 10, and 1 μg/ml. 2% RBCs with 1×PBS alone served as the negative control (No peptide), and 2% RBC in deionized water as the positive control, leading to full lysis. The plate was incubated for 1 h at 37 C and then centrifuged at 1,000 rpm for 2 min. The supernatant was transferred to a fresh regular 96 well plate and read at OD540 as previously reported (Dean et al., 2011). Student's t-test was used to determine whether points were statistically significant.

Data set [11] has as its system E. coli 4157. Briefly: Antibacterial screening at 100 μg/ml. The settings on record: peptide 100 μg/ml. It is filed as cell-based, Escherichia coli. As to the method: as §1, §2
[12] abbreviates: peptide 1 μg/ml, 2% human RBCs (EDTA), 1 h.

The source of these data is patent US12033725B2, “Antimicrobial peptides and related methods” (GEORGE MASON UNIVERSITY, priority 2021, dated 2024).

≈ marks a conversion by molar mass, not a printed value. Entries after “also recorded” stand apart in the source; their conditions may differ. Like-named read-outs stand apart in the source and are kept apart here. Bridge positions count the residues as written; N and C are the ends. Ends that are not written are not given here. Peptide text beside a SMILES is read from it.

Take “KRFKKFFRKLKKSVKKRAKEFFKKPRVIGVSIPF [BF-CATH, reference compound]”: the bactericidal activity in [1] and in data set [2] was 100% throughout. Also, the MIC result is “strong antimicrobial activity” in [3] (antibiotic susceptible E. coli 4157, Mueller Hinton Broth); “strong antimicrobial activity” in data set [4]; “not very effective” in data set [5]; “not very effective” in data set [6]. Moreover, the “previously reported antimicrobial activity level” value in data set [7] is 2.3 µg/mL.
Take FIGAIASYLKKFR [PHNX-6]: the EC50 in data set [8] stood at 7.95 µg/mL.
Turning to FGKLLKLGKGLGG [PHNX-2], the half-maximal effective concentration (EC50) result in data set [9] and in [8] was “no activity” in each case.
“VRLIVAVRIWRR-NH2 (C-terminus assumed) [IDR-1018, reference compound]”: the bactericidal activity in data set [1] and in data set [2] was 100% in each case. Also, the hemolysis result in data set [10] (setting [12]) is on record as “negligible hemolysis”.
Turning to `CC[C@H](C)[C@H](NC(=O)[C@H](CCCCN)NC(=O)[C@H](CC(=O)O)NC(=O)[C@H](CC(C)C)NC(=O)[C@H](CC(C)C)NC(=O)[C@H](CCC(N)=O)NC(=O)CNC(=O)[C@H](C)NC(=O)[C@H](CC(C)C)NC(=O)[C@H](CC(N)=O)NC(=O)[C@H](CCCCN)NC(=O)[C@H](C)NC(=O)[C@H](C)NC(=O)[C@H](CC(N)=O)NC(=O)[C@H](CCCCN)NC(=O)[C@@H](NC(=O)[C@@H](NC(=O)[C@H](CC(=O)O)NC(=O)[C@H](CCSC)NC(=O)[C@H](CC(C)C)NC(=O)CN)[C@@H](C)O)C(C)C)C(=O)N[C@@H](CCCCN)C(=O)N[C@H]1CSSC[C@@H](C(=O)O)NC(=O)CNC(=O)[C@H]([C@@H](C)O)NC(=O)[C@H]([C@@H](C)CC)NC(=O)[C@H](CCCCN)NC1=O` [PHNX-8] (H-GLMDTVKNAAKNLAGQLLDKIKCKITGC-OH; disulfide 23-28 (inferred); N-terminus and C-terminus assumed), the “growth inhibition in the screen (in words)” value in [11] (E. coli 4157) is recorded as “showed activity”; in [1] (peptide 100 μg/ml, MDR E. coli 51659) it was “showed activity”. The bacterial survival in [11] (antibiotic susceptible E. coli 4157) is roughly 0%; in [1] (peptide 100 μg/ml, antibiotic resistant E. coli O157:H7 51659) it was roughly 0%. In addition, the MIC is 32 µg/mL (≈ 10.9 µM) in data set [3] (4157), “without any activity; also recorded: no activity” in data set [5] and “without any activity; also recorded: no activity” in data set [6]. For the same compound, the hemolysis result in data set [10] is reported as “higher hemolytic activity”.
As for `CC[C@H](C)[C@H](NC(=O)[C@H](CCCCN)NC(=O)[C@H](CCC(=O)O)NC(=O)[C@H](CCCCN)NC(=O)[C@H](CO)NC(=O)[C@H](CCCCN)NC(=O)[C@H](CCCNC(=N)N)NC(=O)[C@H](Cc1ccccc1)NC(=O)[C@H](Cc1ccccc1)NC(=O)[C@H](CC(=O)O)NC(=O)CNC(=O)[C@H](CC(C)C)NC(=O)[C@@H](N)CC(C)C)C(=O)NCC(=O)N[C@@H](CCCCN)C(=O)N[C@@H](CCC(=O)O)C(=O)N[C@@H](Cc1ccccc1)C(=O)N[C@@H](CCCCN)C(=O)N[C@@H](CCCNC(=N)N)C(=O)N[C@H](C(=O)N[C@H](C(=O)N[C@@H](CCC(N)=O)C(=O)N[C@@H](CCCNC(=N)N)C(=O)N[C@H](C(=O)N[C@@H](CCCCN)C(=O)N[C@@H](CC(=O)O)C(=O)N[C@@H](Cc1ccccc1)C(=O)N[C@@H](CC(C)C)C(=O)N[C@@H](CCCNC(=N)N)C(=O)N[C@@H](CC(N)=O)C(=O)N[C@@H](CC(C)C)C(=O)N[C@H](C(=O)N1CCC[C@H]1C(=O)N[C@@H](CCCNC(=N)N)C(=O)N[C@H](C(=O)N[C@@H](CCC(=O)O)C(=O)N[C@@H](CO)C(=O)O)[C@@H](C)O)C(C)C)[C@@H](C)CC)C(C)C)[C@@H](C)CC` [LL-37, reference compound], the hemolysis entry in [10] (setting [12]) is on record as “negligible hemolysis”; in data set [10] (peptide 100 μg/ml, 2% human RBCs (EDTA), 1 h) it was “approximately 40%”.
GVVDIIKGAGKKFAKGLAGKIANKK [PHNX-7]: in data set [4], the minimum inhibitory concentration (MIC) is greater than 64 µg/mL. The concentration for a half-maximal effect (EC50) in [8] is 2.09 µg/mL. Further, the hemolysis entry in [10] is reported as “higher hemolytic activity”.
Consider FGKLLKLGKGLKG [PHNX-3], for which the EC50 result in data set [9] and in data set [8] was “no activity” throughout.
FLIKILKGGKGGK [PHNX-5]: the EC50 in [8] was greater than 10 µg/mL. Further, in data set [10], the hemolysis result was “higher hemolytic activity”.
FLLKLGLGKKKLL [PHNX-4]: in [10], the hemolysis result is on record as “higher hemolytic activity”.
